Data: PMC5007552, “The hVps34‐SGK3 pathway alleviates sustained PI3K/Akt inhibition by stimulating mTORC1 and tumour growth” (The EMBO Journal, 2016)
Where “and” joins values, the source holds several entries; their conditions need not be identical. Equal entries are not always repeated.

Tested on: ZR-75-1 cells
Test: NanoString human kinome mRNA quantification
Assay type: cell-based
Source text: Human mRNAs were hybridised to NanoString human kinome and control code sets, then subjected to quantification using NanoString software. […] To permit data compaction, and simple kinome‐wide comparisons, the fold changes are log2 transformed. […] Cell pellets were resuspended at a concentration of ~6,500 cells/μl in RLT buffer (Qiagen). […] For total copy numbers, triplicate normalised count values were averaged, and to calculate fold induction, means were divided by triplicate mean values from matched DMSO controls. P‐values were calculated using unpaired t‐test (GraphPad Prism software) by employing treated and control count data for each kinase mRNA.

NC1(c2ccc(-c3nc4ccn5c(=O)[nH]nc5c4cc3-c3ccccc3)cc2)CCC1 [MK-2206]
CDK18 normalised counts (replicates) (CDK18 mRNA): 93.28 and 102.4 and 103.9
CDK19 average normalised counts (CDK19 mRNA): 336.707
CDK19 normalised counts (replicates) (CDK19 mRNA): 340.52 and 347.39 and 322.21
CDK20 average normalised counts (CDK20 mRNA): 89.7167
CDK20 normalised counts (replicates) (CDK20 mRNA): 106.01 and 80.68 and 82.46
CDKL1 average normalised counts (CDKL1 mRNA): 1
CDKL1 normalised counts (replicates) (CDKL1 mRNA): 1
CDKL2 average normalised counts (CDKL2 mRNA): 5.853
CDKL2 normalised counts (replicates) (CDKL2 mRNA): 6.93 and 5.97 and 4.66
CDKL3 average normalised counts (CDKL3 mRNA): 93.1667
CDKL3 normalised counts (replicates) (CDKL3 mRNA): 98.74 and 82.42 and 98.34
CDKL4 average normalised counts (CDKL4 mRNA): 49.8833
CDKL4 normalised counts (replicates) (CDKL4 mRNA): 49.65 and 57.23 and 42.77
CDKL5 average normalised counts (CDKL5 mRNA): 46.4467
CDKL5 normalised counts (replicates) (CDKL5 mRNA): 46.93 and 52.02 and 40.39
CHEK1 average normalised counts (CHEK1 mRNA): 416.797
CHEK1 normalised counts (replicates) (CHEK1 mRNA): 440.51 and 390.82 and 419.06
CHEK2 average normalised counts (CHEK2 mRNA): 813.71
CHEK2 normalised counts (replicates) (CHEK2 mRNA): 824.09 and 812.16 and 804.88
CHUK average normalised counts (CHUK mRNA): 732.773
CHUK normalised counts (replicates) (CHUK mRNA): 715.01 and 761.78 and 721.53
CIT average normalised counts (CIT mRNA): 394.403
CIT normalised counts (replicates) (CIT mRNA): 393.24 and 389.96 and 400.01
CLK1 average normalised counts (CLK1 mRNA): 994.453
CLK1 normalised counts (replicates) (CLK1 mRNA): 974.07 and 1043.25 and 966.04
CLK2 average normalised counts (CLK2 mRNA): 1169.5
CLK2 normalised counts (replicates) (CLK2 mRNA): 1152.23 and 1182.25 and 1174.03
CLK3 average normalised counts (CLK3 mRNA): 710.143
CLK3 normalised counts (replicates) (CLK3 mRNA): 731.38 and 705.31 and 693.74
CLK4 average normalised counts (CLK4 mRNA): 709.387
CLK4 normalised counts (replicates) (CLK4 mRNA): 719.56 and 687.07 and 721.53
COL4A3BP average normalised counts (COL4A3BP mRNA): 420.653
COL4A3BP normalised counts (replicates) (COL4A3BP mRNA): 415.06 and 433.39 and 413.51
CPNE3 normalised counts (replicates) (CPNE3 mRNA): 2313.35
CSF1R average normalised counts (CSF1R mRNA): 1
CSF1R normalised counts (replicates) (CSF1R mRNA): 1
CSK average normalised counts (CSK mRNA): 629.517
CSK normalised counts (replicates) (CSK mRNA): 633.21 and 603.67 and 651.67
CSNK1A1L average normalised counts (CSNK1A1L mRNA): 2.067
CSNK1A1L normalised counts (replicates) (CSNK1A1L mRNA): 4.2 and 1 (2×)
CSNK1A1 average normalised counts (CSNK1A1 mRNA): 854.287
CSNK1A1 normalised counts (replicates) (CSNK1A1 mRNA): 855.9 and 833.01 and 873.95
CSNK1D average normalised counts (CSNK1D mRNA): 6324.07
CSNK1D normalised counts (replicates) (CSNK1D mRNA): 6300.6 and 6273.94 and 6397.68
CSNK1E average normalised counts (CSNK1E mRNA): 1485.08
CSNK1E normalised counts (replicates) (CSNK1E mRNA): 1520.36 and 1448.08 and 1486.81
Average normalised counts (CSNK1G1 mRNA): 1243.9
Normalised counts (CSNK1G1 mRNA, single replicates): 1266.76 and 1245.67 and 1219.28
Average normalised counts (CSNK1G2 mRNA): 674.087
Normalised counts (CSNK1G2 mRNA, single replicates): 671.38 and 671.43 and 679.45
Average normalised counts (CSNK1G3 mRNA): 1032.23
Normalised counts (CSNK1G3 mRNA, single replicates): 1024.97 and 1049.33 and 1022.4
Average normalised counts (CSNK2A1 mRNA): 568.443
Normalised counts (CSNK2A1 mRNA, single replicates): 546.86 and 575.87 and 582.6
Average normalised counts (CSNK2A2 mRNA): 157.413
Normalised counts (CSNK2A2 mRNA, single replicates): 146.91 and 157.13 and 168.2
Average normalised counts (DAPK1 mRNA): 21.41
Normalised counts (DAPK1 mRNA, single replicates): 22.38 and 18.13 and 23.72
Average normalised counts (DAPK2 mRNA): 44.4967
Normalised counts (DAPK2 mRNA, single replicates): 37.84 and 52.88 and 42.77
Average normalised counts (DCLK1 mRNA): 64.6967
Normalised counts (DCLK1 mRNA, single replicates): 61.47 and 58.1 and 74.52
Average normalised counts (DCLK2 mRNA): 1
Normalised counts (DCLK2 mRNA, single replicates): 1
Average normalised counts (DCLK3 mRNA): 1
Normalised counts (DCLK3 mRNA, single replicates): 1
Normalised counts (DDR1 mRNA, single replicates): 2268.77
Average normalised counts (DDR2 mRNA): 24.12
Normalised counts (DDR2 mRNA, single replicates): 24.2 and 26.82
Average normalised counts (DMPK mRNA): 79.4267
Normalised counts (DMPK mRNA, single replicates): 89.65 and 78.08 and 70.55
Average normalised counts (DSTYK mRNA): 288.937
Normalised counts (DSTYK mRNA, single replicates): 315.98 and 310.3
Average normalised counts (DYRK1A mRNA): 1263.91
Normalised counts (DYRK1A mRNA, single replicates): 1248.58 and 1277.81 and 1265.33
Average normalised counts (DYRK1B mRNA): 113.827
Normalised counts (DYRK1B mRNA, single replicates): 104.19 and 111.96 and 125.33
Average normalised counts (DYRK2 mRNA): 852.053
Normalised counts (DYRK2 mRNA, single replicates): 855.9 and 810.43 and 889.83
Average normalised counts (DYRK3 mRNA): 83.6267
Normalised counts (DYRK3 mRNA, single replicates): 80.56 and 90.24 and 80.08
Average normalised counts (DYRK4 mRNA): 50.6933
Normalised counts (DYRK4 mRNA, single replicates): 52.38 and 53.75 and 45.95
Average normalised counts (EEF2K mRNA): 449.027
Normalised counts (EEF2K mRNA, single replicates): 425.05 and 457.72 and 464.31
Average normalised counts (EGFR mRNA): 78.07
Normalised counts (EGFR mRNA, single replicates): 75.1 and 79.82 and 79.29
Average normalised counts (EIF2AK1 mRNA): 3890.11
Normalised counts (EIF2AK1 mRNA, single replicates): 3762.77 and 3749.38 and 4158.18
Average normalised counts (EIF2AK2 mRNA): 387.137
Normalised counts (EIF2AK2 mRNA, single replicates): 351.43 and 373.45 and 436.53
Average normalised counts (EIF2AK3 mRNA): 167.45
Normalised counts (EIF2AK3 mRNA, single replicates): 158.73 and 166.69 and 176.93
Average normalised counts (EIF2AK4 mRNA): 999.56
Normalised counts (EIF2AK4 mRNA, single replicates): 986.79 and 999.81 and 1012.08
Average normalised counts (EPHA1 mRNA): 298.103
Normalised counts (EPHA1 mRNA, single replicates): 293.25 and 307.43 and 293.63
Average normalised counts (EPHA2 mRNA): 98.1433
Normalised counts (EPHA2 mRNA, single replicates): 101.46 and 85.9 and 107.07
Average normalised counts (EPHA3 mRNA): 1
Normalised counts (EPHA3 mRNA, single replicates): 1
Average normalised counts (EPHA4 mRNA): 54.0467
Normalised counts (EPHA4 mRNA, single replicates): 47.83 and 66.78 and 47.53
Average normalised counts (EPHA5 mRNA): 2.657
Normalised counts (EPHA5 mRNA, single replicates): 2.39 and 2.5 and 3.08
Average normalised counts (EPHA6 mRNA): 46.39
Normalised counts (EPHA6 mRNA, single replicates): 39.65 and 42.46 and 57.06
Average normalised counts (EPHA7 mRNA): 9.993
Normalised counts (EPHA7 mRNA, single replicates): 14.2 and 10.32 and 5.46
Average normalised counts (EPHA8 mRNA): 2.44
Normalised counts (EPHA8 mRNA, single replicates): 4.2 and 1.63 and 1.49
Average normalised counts (EPHA10 mRNA): 29.9233
Normalised counts (EPHA10 mRNA, single replicates): 36.93 and 25.95 and 26.89
Average normalised counts (EPHB1 mRNA): 2.73
Normalised counts (EPHB1 mRNA, single replicates): 4.2 and 2.5
Average normalised counts (EPHB2 mRNA): 16.0233
Average normalised counts (EPHB3 mRNA): 206.547
Average normalised counts (EPHB4 mRNA): 1166.85
Average normalised counts (EPHB6 mRNA): 2.217
Average normalised counts (ERBB2 mRNA): 3923.04
Average normalised counts (ERBB3 mRNA): 1260.11
Average normalised counts (ERBB4 mRNA): 408.193
Average normalised counts (ERN1 mRNA): 386.247
Average normalised counts (ERN2 mRNA): 2.483
Average normalised counts (FASTK mRNA): 67.2133
Average normalised counts (FASTKD1 mRNA): 614.733
Average normalised counts (FASTKD2 mRNA): 563.933
Average normalised counts (FASTKD3 mRNA): 173.083
Average normalised counts (FASTKD5 mRNA): 437.597
Average normalised counts (FER mRNA): 455.723
Average normalised counts (FES mRNA): 1.427
Average normalised counts (FGFR1 mRNA): 1112.53
Average normalised counts (FGFR2 mRNA): 189.803
Average normalised counts (FGFR3 mRNA): 1392.79
Average normalised counts (FGFR4 mRNA): 1462.07
Average normalised counts (FGFRL1 mRNA): 1225.18
Average normalised counts (FGR mRNA): 1
Average normalised counts FLJ25006 (FLJ25006 mRNA, average of 3 replicates): 106.973
Normalised counts FLJ25006 (FLJ25006 mRNA, single replicates): 105.1 and 102.4 and 113.42
Average normalised counts FLT1 (FLT1 mRNA, average of 3 replicates): 1
Normalised counts FLT1 (FLT1 mRNA, single replicates): 1
Average normalised counts FLT3 (FLT3 mRNA, average of 3 replicates): 149.337
Normalised counts FLT3 (FLT3 mRNA, single replicates): 146.91 and 161.48 and 139.62
Average normalised counts FLT4 (FLT4 mRNA, average of 3 replicates): 1.957
Normalised counts FLT4 (FLT4 mRNA, single replicates): 1 (2×) and 3.87
Average normalised counts FRK (FRK mRNA, average of 3 replicates): 160.35
Normalised counts FRK (FRK mRNA, single replicates): 165.09 and 158.87 and 157.09
Average normalised counts FYN (FYN mRNA, average of 3 replicates): 5.563
Normalised counts FYN (FYN mRNA, single replicates): 5.11 and 7.71 and 3.87
Average normalised counts GAK (GAK mRNA, average of 3 replicates): 673.637
Normalised counts GAK (GAK mRNA, single replicates): 641.39 and 690.54 and 688.98
Average normalised counts GRK1 (GRK1 mRNA, average of 3 replicates): 10.12
Normalised counts GRK1 (GRK1 mRNA, single replicates): 8.75 and 4.24 and 17.37
Average normalised counts GRK4 (GRK4 mRNA, average of 3 replicates): 59.8967
Normalised counts GRK4 (GRK4 mRNA, single replicates): 59.65 and 50.28 and 69.76
Normalised counts GRK5 (GRK5 mRNA, single replicates): 18.75 and 22.48 and 22.13
Average normalised counts GRK7 (GRK7 mRNA, average of 3 replicates): 1.957
Normalised counts GRK7 (GRK7 mRNA, single replicates): 1 (2×) and 3.87
Average normalised counts GSG2 (GSG2 mRNA, average of 3 replicates): 390.143
Normalised counts GSG2 (GSG2 mRNA, single replicates): 395.97 and 394.3 and 380.16
Average normalised counts GSK3A (GSK3A mRNA, average of 3 replicates): 3191.73
Normalised counts GSK3A (GSK3A mRNA, single replicates): 3156.49 and 3192.52 and 3226.18
Average normalised counts GSK3B (GSK3B mRNA, average of 3 replicates): 4035
Normalised counts GSK3B (GSK3B mRNA, single replicates): 3944.57 and 4049.09 and 4111.34
Average normalised counts GUCY2C (GUCY2C mRNA, average of 3 replicates): 1
Normalised counts GUCY2C (GUCY2C mRNA, single replicates): 1
Average normalised counts GUCY2D (GUCY2D mRNA, average of 3 replicates): 5.627
Normalised counts GUCY2D (GUCY2D mRNA, single replicates): 6.02 and 8.58 and 2.28
Average normalised counts GUCY2F (GUCY2F mRNA, average of 3 replicates): 1.693
Normalised counts GUCY2F (GUCY2F mRNA, single replicates): 1 (2×) and 3.08
Average normalised counts HCK (HCK mRNA, average of 3 replicates): 1.533
Normalised counts HCK (HCK mRNA, single replicates): 1.48 and 1.63 and 1.49
Average normalised counts HIPK1 (HIPK1 mRNA, average of 3 replicates): 582.127
